Key:
[1] = Cytotoxicity in AML12HBV10 cells (MTT assay); type: cell-based, murine; conditions: mouse, concentration that reduces viability by 50%, serial dilution 50 μM to 0.39 μM
Method: Determination of cytotoxicity of compounds of the disclosure in AML12HBV10 cells: To determine the cytotoxicity of the compounds, AML12HBV10 cells were seeded into 96-well plates at a density of 2×10^4 cells per well and cultured in DMEM/F12 media with 10% fetal bovine serum in the absence of tetracycline to allow pgRNA transcription and HBV DNA replication. One day after seeding, cells were left untreated or treated with a serial dilution of testing compounds, ranging from 50 μM to 0.39 μM, for 48 hours. The cell viability was measured by a MTT assay, following procedure provided by the manufacturer (Promega). The cytotoxicity of a compound was expressed as the concentration of compound that reduces the viability of the cells by 50% (CC50).

[2] = test system: HBV replication in AML12HBV10 cells; assay: Antiviral efficacy in AML12HBV10 cells (HBV DNA dot-blot hybridization); type: cell-based, Hepatitis B virus (HBV); conditions: Hepatitis B virus, AML12HBV10, 48 h, read-out: AML12HBV10 EC50, concentration that reduces the amount of HBV DNA by 50%, serial dilution 50 μM to 0.39 μM
Method: The HBV replication inhibitors of the present invention are capable of treating and preventing diseases associated with HBV infection.
The antiviral efficacy of the compounds of the disclosure, as presented in Table 1, were determined in AML12HBV10 cells. AML12HBV10 is an immortalized murine hepatocyte (AML12)-derived stable cell line that supports robust HBV replication in a tetracycline inducible manner (Xu et al.). The cells were seeded into 96 well plates at a density of 2×10^4 cells per well and cultured in DMEM/F12 media with 10% fetal bovine serum in the absence of tetracycline to allow pgRNA transcription and HBV DNA replication. One day after seeding, cells were left untreated or treated with a serial dilution of testing compounds, ranging from 50 μM to 0.39 μM, for 48 hours. Cells were then lysed by adding into each well of 100 μl lysis buffer containing 10 mM Tris-HCl (pH 7.6), 1 mM EDTA, 100 mM NaCl and 1% NP-40 and incubated at 37° C. for 30 minutes. Half amount (50 μl) of cell lysate from each well was combined with equal volume of denaturing solution containing 0.5N NaOH and 1.5M NaCl. After 5 minute incubation, 100 µl of neutralization solution (1M Tris-HCl, pH 7.4, 1.5M NaCl) was added into each well. The denatured cell lysates (totally 200 μl) were applied onto Nylon membrane using 96-well dot-blot manifold (Biorad). HBV DNA in the cell lysates were determined by dot-blot hybridization with alpha-^32P-UTP-labelled riboprobe specific for HBV minus strand DNA. The antiviral efficacy of a compound of the disclosure was expressed as the concentration that reduces the amount of HBV DNA by 50% (EC50).

[3] = test system: HBV replication in HepDES19 cells; assay: Antiviral activity in HepDES19 cells (core-associated HBV DNA, Southern blot); type: cell-based, Hepatitis B virus (HBV); conditions: concentration that reduces core-associated HBV DNA by 50%, 6 days, serial dilution 10 μM to 0.018 μM
From the text: Determination of antiviral activity of compounds of the disclosure, as presented in Table 1, in human hepatoma-derived cell lines: To further confirm the antiviral activity of the compounds of the disclosure against HBV in human hepatocyte-derived cells, HepDES19 cells, a human hepatoma cell line supporting HBV replication in a tetracycline inducible manner (Guo et al., 2007), seeded into 12-well plates at a density of 5×10^5 cells per well and cultured in DMEM/F12 media with 10% fetal bovine serum and 1 μg/ml tetracycline. Two days after seeding, the cells were mock-treated or treated with a serial dilution of compounds of the disclosure, ranging from 10 μM to 0.018 μM, for 6 days in the absence of tetracycline. Upon the completion of treatment, cells were lysed by adding into each well of the 12-well plates 0.5 ml of lysis buffer containing 10 mM Tris-HCl (pH 8.0), 1 mM EDTA, 1% NP40 and 2% sucrose and incubating at 37° C. for 10 minutes. Cell debris and nuclei were removed by centrifugation and the supernatant was mixed with 130 μl of 35% polyethylene glycol (PEG) 8000 containing 1.5 M NaCl. After 1 hour incubation in ice, viral nucleocapsids were pelleted by centrifugation at 6,000×g for 5 min at 4° C., followed by 1 hour digestion at 37° C. in 400 μl of digestion buffer containing 0.5 mg/ml pronase (Calbiochem), 0.5% SDS, 150 mM NaCl, 25 mM Tris-HCl (pH 8.0) and 10 mM EDTA. The digestion mixture was extracted twice with phenol and DNA was precipitated with ethanol, dissolved in TE buffer (10 mM Tris-HCl, pH 8.0; 0.1 mM EDTA). One half of the DNA sample from each well was resolved by electrophoresis into a 1.5% agarose gel. The gel was then subjected to denaturation in a solution containing 0.5 M NaOH and 1.5 M NaCl, followed by neutralization in a buffer containing 1 M Tris-HCl (pH7.4) and 1.5 M NaCl. DNA was then blotted onto Hybond-XL membrane (GE Health care) in 20×SSC buffer. The amounts of cytoplasmic HBV core-associated HBV DNA were determined by Southern blot hybridization and the antiviral efficacy of a compound was expressed as its concentration that reduce the amount of HBV DNA by 50% (EC50) or 90% (EC90).

[4] = Hepatitis B virus, HepDES19, 144 h

## O=C(Nc1ccc(O)cc1)c1scc2c1CCCC2 [Entry 1]
[1]
  CC50 at 48 h: > 50 µM
[2]
  EC50: 36 µM

## O=C(Nc1ccccc1)c1scc2c1CCCC2 [Entry 2]
[1]
  CC50 at 48 h: > 50 µM
[2]
  EC50: 9 µM

## O=C(Nc1ccc(F)cc1)c1scc2c1CCCC2 [Entry 3]
[1]
  CC50 at 48 h: > 50 µM
[2]
  EC50: 25 µM

## COc1cccc(NC(=O)c2scc3c2CCCC3)c1 [Entry 4]
[1]
  CC50 at 48 h: > 50 µM
[2]
  EC50: 8 µM

## O=C(Nc1cccc(C(F)(F)F)c1)c1scc2c1OCCO2 [Entry 5]
[1]
  CC50 at 48 h: > 50 µM
[2]
  EC50: 8.5 µM

## O=C(Nc1ccccc1)c1scc2c1OCCO2 [Entry 7]
[3]
  EC50: 3 µM
[1]
  CC50 at 48 h: > 50 µM
[2]
  EC50: 3 µM

## O=C(Nc1cccc(Cl)c1)c1ccccc1 [Entry 8]
[1]
  CC50 at 48 h: > 50 µM
[2]
  EC50: 46.2 µM

## O=C(Nc1cccc(I)c1)c1scc2c1OCCO2 [Entry 9]
[1]
  CC50 at 48 h: > 50 µM
[2]
  EC50: 2.8 µM

## O=C(Nc1cccc(Cl)c1)c1csc2ccccc12 [Entry 11]
[1]
  CC50 at 48 h: > 50 µM
[2]
  EC50: 30 µM

## O=C(Nc1cccc(Cl)c1)c1cccc(F)c1F [Entry 12]
[1]
  CC50 at 48 h: > 50 µM
[2]
  EC50: 30 µM

## O=C(Nc1cccc(Cl)c1)c1ccccc1Cl [Entry 13]
[1]
  CC50 at 48 h: > 50 µM
[2]
  EC50: 12.3 µM

## O=C(Nc1cccc(Cl)c1)c1cccc(Cl)c1Cl [Entry 14]
[3]; [4]
  EC50: 22.2 µM
[1]
  CC50 at 48 h: > 50 µM
[2]
  EC50: 8.3 µM

## O=C(Nc1cccc(Cl)c1)c1c(F)cccc1F [Entry 15]
[1]
  CC50 at 48 h: > 50 µM
[2]
  EC50: 31.2 µM

## O=C(Nc1cccc(Cl)c1)c1c(Cl)cccc1Cl [Entry 16]
[1]
  CC50 at 48 h: > 50 µM
[2]
  EC50: 35.3 µM

## O=C(Nc1cccc(Cl)c1)c1ccccc1F [Entry 17]
[1]
  CC50 at 48 h: > 50 µM
[2]
  EC50: 16.5 µM

## O=C(Nc1cccc(Cl)c1)c1cccc2ccccc12 [Entry 18]
[3]; [4]
  EC50: 4.2 µM
[1]
  CC50 at 48 h: > 50 µM
[2]
  EC50: 6.52 µM

## O=C(Nc1cc(Cl)cc(Cl)c1)c1cccc2c1OCCO2 [Entry 20]
[1]
  CC50 at 48 h: > 50 µM
[2]
  EC50: 4.85 µM

## O=C(Nc1ccc(F)c(F)c1)c1ccc2ccccc2c1 [Entry 21]
[1]
  CC50 at 48 h: > 50 µM
[2]
  EC50: 23.9 µM

## O=C(Nc1ccc(F)c(F)c1)c1scc2c1OCCO2 [Entry 22]
[1]
  CC50 at 48 h: > 50 µM
[2]
  EC50: < 0.4 µM

## O=C(Nc1cccc(I)c1)c1ccc2ccccc2c1 [Entry 23]
[1]
  CC50 at 48 h: > 50 µM
[2]
  EC50: 19.4 µM

## O=C(Nc1cccc(Cl)c1)c1cccc2c1OCO2 [Entry 24]
[1]
  CC50 at 48 h: > 10 µM
[2]
  EC50: 1.14 µM

## O=C(Nc1cccc(F)c1)c1cccc2c1OCCO2 [Entry 25]
[1]
  CC50 at 48 h: > 10 µM
[2]
  EC50: 0.41 µM

## O=C(Nc1ccc(F)cc1)c1cccc2c1OCCO2 [Entry 26]
[1]
  CC50 at 48 h: > 10 µM
[2]
  EC50: 0.4 µM

## O=C(Nc1cccc(OC(F)(F)F)c1)c1cccc2c1OCCO2 [Entry 27]
[1]
  CC50 at 48 h: > 10 µM
[2]
  EC50: 11.2 µM

## O=C(Nc1ccccc1F)c1cccc2c1OCCO2 [Entry 28]
[1]
  CC50 at 48 h: > 10 µM
[2]
  EC50: 10.8 µM

## O=C(Nc1ccc(Br)cc1F)c1cccc2c1OCCO2 [Entry 29]
[1]
  CC50 at 48 h: > 10 µM
[2]
  EC50: 10.6 µM

## O=C(Nc1cc(F)ccc1F)c1cccc2c1OCCO2 [Entry 30]
[1]
  CC50 at 48 h: > 10 µM
[2]
  EC50: 14.9 µM

## O=C(Nc1ccc(F)c(F)c1)c1cccc2c1OCCO2 [Entry 31]
[1]
  CC50 at 48 h: > 10 µM
[2]
  EC50: 0.17 µM

## O=C(Nc1ccc(F)cc1F)c1cccc2c1OCCO2 [Entry 32]
[1]
  CC50 at 48 h: > 10 µM
[2]
  EC50: 8.53 µM

## O=C(Nc1ccc(F)c(F)c1)c1cccc(Cl)c1Cl [Entry 33]
[1]
  CC50 at 48 h: > 10 µM
[2]
  EC50: 1.86 µM

## O=C(Nc1ccc(F)cc1F)c1cccc(Cl)c1Cl [Entry 34]
[1]
  CC50 at 48 h: > 10 µM
[2]
  EC50: 13.2 µM

## O=C(Nc1ccc(Cl)c(Cl)c1)c1cccc2c1OCCO2 [Entry 35]
[1]
  CC50 at 48 h: > 10 µM
[2]
  EC50: 0.49 µM

## O=C(Nc1ccc(F)cc1Cl)c1cccc2c1OCCO2 [Entry 36]
[1]
  CC50 at 48 h: > 10 µM
[2]
  EC50: 7.41 µM

## O=C(Nc1ccc(Cl)cc1F)c1cccc2c1OCCO2 [Entry 37]
[1]
  CC50 at 48 h: > 10 µM
[2]
  EC50: 8.88 µM

## O=C(Nc1ccc(F)c(Cl)c1)c1cccc2c1OCCO2 [Entry 38]
[1]
  CC50 at 48 h: > 10 µM
[2]
  EC50: 0.05 µM

## O=C(Nc1ccc(F)c(F)c1F)c1cccc2c1OCCO2 [Entry 39]
[1]
  CC50 at 48 h: > 10 µM
[2]
  EC50: 3 µM

## O=C(Nc1c(F)cc(F)cc1F)c1cccc2c1OCCO2 [Entry 40]
[1]
  CC50 at 48 h: > 10 µM
[2]
  EC50: 10.5 µM

## O=C(Nc1ccc(Cl)c(F)c1)c1cccc2c1OCCO2 [Entry 41]
[1]
  CC50 at 48 h: > 25 µM
[2]
  EC50: 1.48 µM

## O=C(Nc1cccc(Cl)c1)c1cccc2c1OCCCO2 [Entry 42]
[1]
  CC50 at 48 h: > 25 µM
[2]
  EC50: 2.75 µM

## O=C(Nc1ccc(F)c(F)c1)c1cccc2c1OCCCO2 [Entry 43]
[1]
  CC50 at 48 h: > 25 µM
[2]
  EC50: 1.93 µM

## O=C(Nc1ccc(F)c(Cl)c1)c1cccc2c1OCCCO2 [Entry 44]
[1]
  CC50 at 48 h: > 25 µM
[2]
  EC50: 1.1 µM

## O=C(Nc1ccc(Cl)c(F)c1)c1cccc2c1CCCC2 [Entry 45]
[1]
  CC50 at 48 h: > 25 µM
[2]
  EC50: 1.66 µM

## O=C(Nc1ccc(F)c(F)c1)c1cccc2c1CCCC2 [Entry 46]
[1]
  CC50 at 48 h: > 25 µM
[2]
  EC50: 1.48 µM
